In PubChem BioAssay (NCI):
“And” between values parts separate entries of the source, which are not always exact repeats. Identical values can stand only once.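 Values below derive from 48-hour exposures of cells grown in 96-well plates, with endpoints linearly interpolated between the two concentrations bracketing the appropriate inhibition level. GI50 = concentration required for 50% inhibition of growth. TGI marks complete inhibition of growth.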

Experiments:
Assay in all cases: growth of human tumour cells (NCI), 48 h
[1] = test system: KM12 colon
[2] = test system: ACHN renal
[3] = test system: OVCAR-8 ovarian
[4] = test system: SK-MEL-5 melanoma
[5] = test system: UO-31 renal
[6] = test system: MALME-3M melanoma
[7] = test system: HOP-62 NSCLC
[8] = test system: M14 melanoma
[9] = test system: LOX IMVI melanoma
[10] = test system: OVCAR-3 ovarian

`CC(=O)N1c2ccc(-c3ccc(C(=O)O)cc3)cc2[C@H](Nc2ccc(Cl)cc2)C[C@@H]1C` showed a GI50 [1] of 0.924 µM, a TGI [1] of 20.2 µM and a GI50 [2] of 0.41 µM. It also gave a TGI [2] of 21.9 µM, a GI50 [3] of 2.52 µM and a TGI [3] of 63.5 µM. It also gave a GI50 [4] of 0.357 µM, a TGI [4] of 12.6 µM and a GI50 [5] of under 0.0251 µM. It also gave a TGI [5] of 13 µM, a GI50 [6] of 0.168 µM and a TGI [6] of 3.64 µM. For the same molecule, the GI50 [7] was 0.0677 µM, the TGI [7] was 22.4 µM and the GI50 [8] was 0.096 µM. The TGI [8] was 23.2 µM, the GI50 [9] was 0.0628 µM and the TGI [9] was 3.48 µM. The GI50 [10] was 0.343 µM and the TGI [10] was 18.8 µM.

With `CCC(=O)OCN1C(=O)C=CC1=O` the GI50 [1] was 19.3 µM, the TGI [1] was 35.1 µM and 30.8 µM and the GI50 [2] was 15.1 µM. For the same molecule, the TGI [2] was 28.5 µM and 19.7 µM, the TGI [3] was 35 µM and 37 µM and the GI50 [4] was 18.9 µM. For the same molecule, the TGI [4] was 42.5 µM and > 58.1 µM, the GI50 [5] was 17.5 µM and the TGI [5] was 31.7 µM and 20.7 µM. The GI50 [6] was 16 µM, the TGI [6] was 31.5 µM and 27.6 µM and the TGI [7] was 37.6 µM and 34.9 µM. The TGI [8] was 37.5 µM and 32.3 µM, the TGI [9] was 34.3 µM and 35.1 µM and the GI50 [10] was 12.9 µM. For the same molecule, the TGI [10] was 25.7 µM and 18.6 µM.

`COc1c(OC2OC(CO)C(O)C(O)C2O)cc2c(c1OC)-c1ccc(OC)c(=O)cc1[C@@H](NC(C)=O)CC2` (stereo partly specified) showed a TGI [1] of over 100 µM, a TGI [2] of over 100 µM and a TGI [3] of over 100 µM. The TGI [4] was over 94.5 µM, the TGI [5] was over 100 µM and the TGI [6] was over 100 µM. The TGI [7] was over 100 µM, the TGI [8] was over 100 µM and the TGI [9] was over 100 µM. For the same molecule, the TGI [10] was over 96.6 µM.

With `Nc1ncnc2c1ncn2COC/C=C/I` the TGI [1] was over 100 µM, the TGI [2] was over 100 µM and the TGI [3] was over 100 µM. The TGI [4] was over 100 µM, the TGI [5] was over 100 µM and the TGI [6] was over 100 µM. The TGI [7] was over 100 µM, the TGI [8] was over 100 µM and the TGI [9] was over 100 µM. The TGI [10] was over 100 µM.

For `O=C(N/N=C/c1cccc(O)c1)c1ccc(C(F)(F)F)nc1Nc1cccc(C(F)(F)F)c1`, the GI50 [1] was 1.69 µM, the TGI [1] was 5.22 µM and the GI50 [2] was 2.09 µM. For the same molecule, the TGI [2] was 6.35 µM, the GI50 [3] was 2.12 µM and the TGI [3] was 11.3 µM. For the same molecule, the GI50 [4] was 1.21 µM, the TGI [4] was 2.44 µM and the GI50 [5] was 1.59 µM. It also gave a TGI [5] of 5.08 µM, a GI50 [6] of 1.36 µM and a TGI [6] of 3.83 µM. It also gave a GI50 [7] of 2.35 µM, a TGI [7] of 6.95 µM and a GI50 [8] of 1.89 µM. For the same molecule, the TGI [8] was 5.02 µM, the GI50 [9] was 1.17 µM and the TGI [9] was 3.17 µM. For the same molecule, the GI50 [10] was 1.03 µM and the TGI [10] was 4.79 µM.

`CCOc1ccccc1NC(=O)C(=O)c1c(O)c2ccc(O)cc2oc1=O` showed a TGI [1] of over 100 µM, a TGI [2] of over 100 µM and a TGI [3] of over 100 µM. It also gave a TGI [4] of over 100 µM, a TGI [5] of over 100 µM and a TGI [6] of over 100 µM. It also gave a TGI [7] of over 100 µM, a TGI [8] of over 100 µM and a TGI [9] of over 100 µM. For the same molecule, the TGI [10] was over 100 µM.

`COC(=O)CCc1c(/C=C2\N=C(c3ccc[nH]3)C=C2OC)[nH]c(C)c1C(=O)OCc1ccccc1` gave a GI50 [1] of 0.29 µM, a TGI [1] of 4.98 µM and a GI50 [2] of 0.297 µM. For the same molecule, the TGI [2] was 1.1 µM, the GI50 [3] was 0.432 µM and the TGI [3] was 5.75 µM. It also gave a GI50 [4] of 0.47 µM, a TGI [4] of 1.75 µM and a GI50 [5] of 0.155 µM. For the same molecule, the TGI [5] was 0.359 µM, the GI50 [6] was 0.638 µM and the TGI [6] was 2.12 µM. For the same molecule, the GI50 [7] was 0.303 µM, the TGI [7] was 2 µM and the GI50 [8] was 0.256 µM. The TGI [8] was 0.784 µM, the GI50 [9] was 0.169 µM and the TGI [9] was 0.418 µM. For the same molecule, the GI50 [10] was 0.34 µM and the TGI [10] was 1.64 µM.

`N#CC12CC3(CCC1CCC1(C2)OCCO1)OCCO3` (stereo unspecified) gave a TGI [1] of over 100 µM, a TGI [2] of over 100 µM and a TGI [3] of over 100 µM. For the same molecule, the TGI [4] was over 100 µM, the TGI [5] was over 100 µM and the TGI [6] was over 100 µM. It also gave a TGI [7] of over 100 µM, a TGI [8] of over 100 µM and a TGI [9] of over 100 µM. For the same molecule, the TGI [10] was over 100 µM.

Work on `CN1CCN(Cc2ccc(NC(=O)c3[nH]ncc3Nc3cc(OC4CCCC4)ncn3)cc2)CC1` yielded a GI50 [1] of 2.18 µM, a TGI [1] of 6.19 µM and a GI50 [2] of 1.09 µM. For the same molecule, the TGI [2] was 3.1 µM, the GI50 [3] was 4.95 µM and the TGI [3] was 26.9 µM. The GI50 [4] was 1.44 µM, the TGI [4] was 4.07 µM and the GI50 [5] was 1.4 µM. The TGI [5] was 11.2 µM, the GI50 [6] was 2.05 µM and the TGI [6] was 5.43 µM. For the same molecule, the GI50 [7] was 3.7 µM, the TGI [7] was 13.2 µM and the GI50 [8] was 1.35 µM. The TGI [8] was 3.62 µM, the GI50 [9] was 1.63 µM and the TGI [9] was 3.83 µM. It also gave a GI50 [10] of 1.77 µM and a TGI [10] of 3.69 µM.

`CN1C(=O)C(C)(C)Oc2c(-c3cn(C)c(=O)c4[nH]ccc34)cc(S(C)(=O)=O)cc21` showed a GI50 [1] of 1.44 µM, a TGI [1] of 16.1 µM and a GI50 [2] of 1.39 µM. It also gave a TGI [2] of over 100 µM, a GI50 [3] of 1.81 µM and a TGI [3] of over 100 µM. The GI50 [4] was 1.34 µM, the TGI [4] was 3.27 µM and the GI50 [5] was 0.431 µM. The TGI [5] was over 100 µM, the GI50 [6] was 1.1 µM and the TGI [6] was 25.8 µM. It also gave a GI50 [7] of 0.732 µM, a TGI [7] of over 100 µM and a GI50 [8] of 0.727 µM. The TGI [8] was over 100 µM, the GI50 [9] was 0.462 µM and the TGI [9] was 1.73 µM. For the same molecule, the GI50 [10] was 0.999 µM and the TGI [10] was 5.17 µM.

`CC(C)Cn1cnc2c(SCc3ccccn3)nc(N)nc21` gave a TGI [1] of over 100 µM, a TGI [2] of over 100 µM and a TGI [3] of over 100 µM. For the same molecule, the TGI [4] was over 100 µM, the TGI [5] was over 100 µM and the TGI [6] was over 100 µM. The TGI [7] was over 100 µM, the TGI [8] was over 100 µM and the TGI [9] was over 100 µM. For the same molecule, the TGI [10] was over 100 µM.

`CSc1nc(-c2cccc(NC(=O)CCl)c2)c(C#N)c(=O)n1C` gave a GI50 [1] of 1.82 µM, a TGI [1] of 3.54 µM and a GI50 [2] of 1.03 µM. The TGI [2] was 2.22 µM, the GI50 [3] was 2.43 µM and the TGI [3] was over 100 µM. The GI50 [4] was 1.33 µM, the TGI [4] was 2.74 µM and the GI50 [5] was 1.47 µM. It also gave a TGI [5] of 2.82 µM, a GI50 [6] of 1.17 µM and a TGI [6] of 2.66 µM. It also gave a GI50 [7] of 2.16 µM, a TGI [7] of 4.87 µM and a GI50 [8] of 1.78 µM. The TGI [8] was 5.61 µM, the GI50 [9] was 0.0184 µM and the TGI [9] was 0.0342 µM. For the same molecule, the GI50 [10] was 1.7 µM and the TGI [10] was 3.2 µM.
